This note sets out measurements from ChEMBL document CHEMBL5385858, “Identification of novel Pyrrolo[2,3-d]Pyrimidine-based KRAS G12C inhibitors with anticancer effects” (Eur J Med Chem, 2023).

Active and inactive are the calls of the source. The calls are words filed in the database; no cut-off is given here. Some results are limits rather than exact numbers.

In one test the target is SOS1-KRAS (Homo sapiens, UniProt P01116, G12C). Description: Inhibition of KRAS G12C mutant/SOS1 (unknown origin) interaction incubated for 2 hrs in presence of GTP by HTRF assay. Type of test: protein-complex assay. (In general: Time-resolved FRET reads energy transfer from a long-lived donor to a nearby acceptor.)
Chain of SOS1-KRAS (P01116 whole entry G12C, looked up): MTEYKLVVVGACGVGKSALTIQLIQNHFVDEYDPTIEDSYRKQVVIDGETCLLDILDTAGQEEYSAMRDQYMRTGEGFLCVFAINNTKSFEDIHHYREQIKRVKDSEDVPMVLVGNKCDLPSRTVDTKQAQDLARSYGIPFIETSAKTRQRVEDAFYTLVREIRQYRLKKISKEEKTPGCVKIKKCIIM
For test [1], the system named is NCI-H358. Description: Antiproliferative activity against human NCI-H358 cells harboring KRAS G12C mutant assessed as inhibition of cell proliferation incubated for 3 days by CCK8 assay. Format: functional, cell-based. To be noted: NCI-H358, 72 h. (Tetrazolium assays rely on reduction of a dye to a coloured formazan, in cell work by metabolically active cells.)
The next test concerns MIA PaCa-2. Description: Antiproliferative activity against human MIA PaCa-2 cells harboring KRAS G12C mutant assessed as inhibition of cell proliferation incubated for 3 days by CCK8 assay. Conditions: MIA PaCa-2, 72 h. Format: functional, cell-based.
For a further test, the system named is NCI-H1975. As to the kind of experiment: Antiproliferative activity against human NCI-H1975 cells harboring wild-type KRAS assessed as inhibition of cell proliferation incubated for 3 days by CCK8 assay. Format: functional, cell-based. To be noted: NCI-H1975, 72 h.
For the next test, the system named is A549. As to the kind of experiment: Antiproliferative activity against human A549 cells harboring KRAS G12S mutant assessed as inhibition of cell proliferation incubated for 3 days by CCK8 assay. Conditions: A549, 72 h. Format: functional, cell-based.
Test [2] concerns NCI-H358. As to the kind of experiment: Antiproliferative activity against human NCI-H358 cells harboring KRAS G12C/Y96D mutant assessed as inhibition of cell proliferation incubated for 48 hrs by CCK8 assay. Type of test: functional, cell-based.
Test [3] relates to NCI-H358. Description: Induction of apoptosis in human NCI-H358 cells assessed as viable cells at 0.1 uM incubated for 24 hrs by Annexin V-FITC/PI staining based flow cytometry (reference value: 91.4 %). Type of test: functional.
Test [4] deals with NCI-H358. As to the kind of experiment: Induction of apoptosis in human NCI-H358 cells assessed as early apoptotic cells at 0.1 uM incubated for 24 hrs by Annexin V-FITC/PI staining based flow cytometry (reference value: 5.4 %). Format: functional. A general note: A flow cytometer gives signals particle by particle.
The test system of test [5] is NCI-H358. As to the kind of experiment: Induction of apoptosis in human NCI-H358 cells assessed as late apoptotic cells at 0.1 uM incubated for 24 hrs by Annexin V-FITC/PI staining based flow cytometry (reference value: 1.32 %). Format: functional.
For test [6], the system named is NCI-H358. As to the kind of experiment: Induction of apoptosis in human NCI-H358 cells assessed as necrotic cells at 0.1 uM incubated for 24 hrs by Annexin V-FITC/PI staining based flow cytometry (reference value: 1.88 %). Format: functional.
Test [7] has as its system NCI-H358. As to the kind of experiment: Inhibition of cell migration in human NCI-H358 cells at 0.1 uM measured for 48 hrs by wound scratch assay. Format: functional, cell-based.
The subject of test [8] is NCI-H358. As to the kind of experiment: Inhibition of cell invasion in human NCI-H358 cells measured for 24 hrs by transwell assay. Type of test: functional, cell-based.
The test system of test [9] is NCI-H358. Description: Antitumor activity in human NCI-H358 cells xenografted in BALB/c-nu/nu mouse assessed as tumor growth inhibition at 10 mg/kg, po qd treated for 20 days relative to control. Type of test: functional. To be noted: time 20 day.

As for `C=CC(=O)N1CCN(c2nc(OC[C@@H]3CCCN3C)nc3c2cc(-c2cccc4cccc(O)c24)n3C)C[C@@H]1CC#N`, the half-maximal inhibitory concentration (IC50) (usually the concentration at which inhibition is half-maximal) on SOS1-KRAS is 3.24 µM.

Consider `C=CC(=O)N1CCN(c2nc(OCC34CCCN3CCC4)nc3c2cc(-c2cccc4cccc(C)c24)n3C)C[C@@H]1CC#N`, for which the 50% inhibitory concentration (IC50) at SOS1-KRAS was 0.34 µM.

Turning to `C=CC(=O)N1CCN(c2nc(OC[C@H]3CCCN3C)nc3c2cc(-c2cccc4cccc(C)c24)n3C)C[C@@H]1CC#N`, the IC50 on SOS1-KRAS was found to be 1.94 µM.

`C=CC(=O)N1CCN(c2nc(OC[C@@H]3CCCN3C)nc3c2cc(-c2c(C)ccc4c2cnn4C)n3C)C[C@@H]1CC#N`: the IC50 on SOS1-KRAS was greater than 10 µM.

Turning to `C=CC(=O)N1CCN(c2nc(N3CCOCC3)nc3c2cc(-c2cccc4cccc(C)c24)n3C)C[C@@H]1CC#N`, on SOS1-KRAS, the IC50 was greater than 10 µM.

With `C=CC(=O)N1CCN(c2nc(OC[C@@H]3CCCN3C)nc3c2cc(-c2cccc4cccc(C)c24)n3C)C[C@@H]1CC#N`, the IC50 on SOS1-KRAS came to 1.54 µM.

In the case of `C=CC(=O)N1CCN(c2nc(OC[C@@H]3CCCN3C)nc3c2cc(-c2ccc4[nH]ncc4c2)n3C)C[C@@H]1CC#N`, the 50% inhibitory concentration (IC50) at SOS1-KRAS is greater than 10 µM.

For `C=CC(=O)N1CCN(c2nc(OC[C@@H]3CCCN3C)nc3c2cc(-c2cc(OC)cc4ccccc24)n3C)C[C@@H]1CC#N`, the 50% inhibitory concentration (IC50) on SOS1-KRAS is greater than 10 µM.

`C=CC(=O)N1CCN(c2nc(NCCN(C)C)nc3c2cc(-c2cccc4cccc(C)c24)n3C)C[C@@H]1CC#N`: at SOS1-KRAS, the IC50 is greater than 10 µM.

As for `C=CC(=O)N1CCN(c2nc(OC[C@@H]3CCCN3C)nc3c2cc(-c2c(C)ccc4[nH]ncc24)n3C)C[C@@H]1CC#N`, at SOS1-KRAS, the IC50 is greater than 10 µM.

On to `C=CC(=O)N1CCN(c2nc(OC[C@@H]3CCCN3C)nc3c2cc(-c2cc(O)cc4ccccc24)n3C)C[C@@H]1CC#N`, for which the 50% inhibitory concentration (IC50) on SOS1-KRAS is 2.04 µM.

For the compound `C=C(F)C(=O)N1CCN(c2nc(OC[C@@H]3CCCN3C)nc3c2CCN(c2cccc4cccc(Cl)c24)C3)C[C@@H]1CC#N` [ADAGRASIB], the IC50 with NCI-H358 [1] came to 0.02 µM; in the test on MIA PaCa-2, 0.05 µM; in the test with NCI-H1975, 6.37 µM; in the test with A549, 12.9 µM. Further, the inhibition result in the test with NCI-H358 [2] was “inactive”. Also, the Activity was 79.9% with NCI-H358 [3]; 14.5% with NCI-H358 [4]; 4.52% in the test on NCI-H358 [5]; 1.04% in the test with NCI-H358 [6]; “Dose-Dependent Effect” in the test on NCI-H358 [8]. Further, the outcome in the test on NCI-H358 [7] was Active. Moreover, the TGI (usually the reduction of tumour growth relative to the control group) in the test with NCI-H358 [9] turned out to be 69.3%.

Regarding `C=CC(=O)N1CCN(c2nc(OCCN(C)C)nc3c2cc(-c2cccc4cccc(C)c24)n3C)C[C@@H]1CC#N`, the IC50 on SOS1-KRAS is greater than 10 µM.

With `C=CC(=O)N1CCN(c2nc(OCCN(C(C)C)C(C)C)nc3c2cc(-c2cccc4cccc(C)c24)n3C)C[C@@H]1CC#N`, at SOS1-KRAS, the IC50 is greater than 10 µM.

For `C=CC(=O)N1CCN(c2nc(N3CCN(C)CC3)nc3c2cc(-c2cccc4cccc(C)c24)n3C)C[C@@H]1CC#N`, the IC50 at SOS1-KRAS was greater than 10 µM.

For the compound `C=CC(=O)N1CCN(c2nc(OC[C@@H]3CCCN3C)nc3c2cc(-c2cccc4cccc(OC)c24)n3C)C[C@@H]1CC#N`, the IC50 at SOS1-KRAS was greater than 10 µM.
